According to patent US20240189263A1, “DERIVATIZED C60 MOLECULES AND METHODS AND MATERIALS FOR USING DERIVATIZED C60 MOLECULES TO REDUCE RADIATION INJURY” (Mayo Foundation for Medical Education and Research, priority 2021, published 2024):

Experiments:
NIH3T3 cells = test: DNA damage, γH2AX foci immunofluorescence, NIH3T3; type: cell-based
Experimental: To test the ability of C60-ser to protect against radiation injury, the level of DNA damage in response to radiation was analyzed by measuring γH2AX. The H2AX protein becomes phosphorylated into γH2AX as a result of DNA double strand breaks. This allows for the visualization and quantification of double strand break foci through immunofluorescence analysis. Cells were plated on 8 chamber slides and incubated overnight before C60-ser treatment. Three sets of slides per cell line (to be irradiated with 0, 0.5, and 1 Gy) were prepared, with the top 4 rows used as a control and the bottom 4 rows incubated with 100 μM C60-ser. Cells were incubated with C60-ser for 2 hours before irradiation with a clinical Proteus One proton machine (Ion Beam Applications, Louvain-la-Neuve, Belgium). A 230 MeV mono-energetic unmodulated broad beam of large field size that encompassed all slides containing the cells was used to deliver the 0.5 and 1 Gy doses. White solid water slabs (IBA Dosimetry, Germany) provided the necessary phantom material to place the cells at the desired 8 cm depth with an LET of approximately 1.7 keV/μm. After irradiation, cells were incubated at 37° C. with 5% CO2 for 30 minutes before washing and fixing the cells with 1% formaldehyde. The cells were permeabilized with 1% NP-40 and incubated with 5% BSA to block unspecific antibody bonding. The cells were then incubated with γH2AX primary antibody followed by a secondary antibody. Mounting media containing DAPI was used before applying cover slips and sealing the samples. Cells were imaged on an Olympus IX71 trinocular inverted fluorescence phase contrast microscope with a 40× objective. The resulting images were analyzed by ImageJ, and the foci were counted.

N2A cells = test: Seahorse mitochondrial respiration (oxygen consumption rate), N2A; type: cell-based; settings: pretreated 2 hours before 1 Gy 230 MeV proton
Experimental: The oxygen consumption rates were assessed in N2A, HUVEC, NIH3T3, and HepG2 cell lines with a Seahorse XFe96 (Agilent Technologies, Santa Clara, CA, USA). Cells were treated with 0 and 1 Gy of 230 MeV proton irradiation. The control plates were run at about the same time post plating. Each cell line was optimized prior to these experiments, and data was presented normalized to cell number plated. The standard mitochondrial stress test was performed using serial injections of oligomycin (1.5 μM), carbonyl cyanide p-(trifluoromethoxy)phenylhydrazone (FCCP, 1 μM), and rotenone/antimycin A mixture (0.5 μM). After injection of oligomycin, which inhibits ATP synthase (complex V), there was a drop in electron flow through the electron transport chain (ETC) and a resultant drop in oxygen consumption rate (OCR) of the cells. Injection of FCCP collapsed the proton gradient and allowed for uninhibited electron flow through the ETC supercomplexes. […] The reserve respiratory capacity was calculated by subtracting the basal respiratory capacity from the maximal respiratory capacity.

[1] = Stability of C60-ser, hexakis-adduct peak by HPLC-ELSD; type: physicochemical
Experimental: Stability of the C60-ser product as prepared in Example 1 was analyzed by measuring the hexakis-adduct peak with high performance liquid chromatography (HPLC) equipped with evaporative light scattering detector (ELSD). The C60-ser was stored as a solid form at 4° C. under nitrogen, as a solution in DI water at 4° C., and as a solution in DI water at room temperature. The stability of the C60-ser in each set of storage conditions was measured at 1, 7, 28, and 120 days (Table 1).

[2] = system: HCT116 colorectal cancer cells; test: Clonogenic assay of irradiated HCT116 colorectal cancer cells; type: cell-based; settings: HCT116, 100 μM 2 hours, 0-6 Gy
Experimental: A clonogenic assay of HCT116 colorectal cancer cells was conducted. 2×10^6 cells were treated with 100 μM C60-ser for 2 hours and exposed to 0-6 Gy of radiation.

[3] = Dynamic light scattering analysis of C60-ser aggregates; type: physicochemical; settings: for Predominant aggregate sizes: in PBS
Experimental: Dynamic light scattering (DLS) was used to observe the aggregation process of C60-ser. Dynamic light scattering heatmaps were created by combining multiple normalized particle number weighted distribution (PNWD) plots. The PNWD plots compared the log of the relative scattering intensity versus particle size, at angles of 173°. The refractive index was assumed to be n=1.34, the absorption constant to be k=0.001, and the solution viscosity to be that of water, corrected for temperature (η=0.888 mPa s). Plots were collected with a 0.2° C. interval. Each temperature interval was held constant for more than 45 minutes before performing the next measurement, to ensure the presence of an aggregation equilibrium.

HepG2 cells = test: Classic clonogenics survival assay of irradiated cells, HepG2; type: cell-based
Experimental: A classic clonogenics assay was performed to further test the ability of C60-ser to protect against radiation damage. After irradiation, a fraction of the cells will undergo radiation-induced death, whereas other cells remain metabolically active and are able to undergo a few cycles of mitosis before meeting their endpoint. Since many cells remain metabolically activity, classic toxicity measurements such as an MTT measurement are not able to catch the full effects of radiation damage. In contrast, a classic clonogenics assay, which plates a known number of cells and tracks development of colonies, is able to track the number of cells that maintain their clonogenicity. With increasing radiation doses, the fraction of cells that maintain clonogenicity decrease. Therefore, a successful radioprotectant is able to increase the number of surviving colonies compared to the control at the same radiation doses.
N2A, NIH3T3, and HepG2 cells were plated in 35 mm dishes and treated with 100 μM C60-ser for 2 hours prior to washing with PBS and irradiation at 0, 2, 4, and 6 Gy with a 230 MeV proton beam. Following radiation, a known number of cells were re-plated in six well plates and allowed to grow in culture for 8-14 days to allow for colony formation. To account for cell death with higher radiation doses, a larger number of cells were plated with increasing doses received. […]

For `O=C(NC(CO)CO)C1(C(=O)NC(CO)CO)C23c4c5c6c7c8c4-c4c2c2c9c%10c4C4%11c%12c-%10c%10c%13c%14c%12-c%12c(c-7c7c%15c%12C%14%12C(C(=O)NC(CO)CO)(C(=O)NC(CO)CO)C%12%14c%12c%16c%17c%18c(c%12-%15)C7%12C(C(=O)NC(CO)CO)(C(=O)NC(CO)CO)C6%12c6c-5c5c7c(c6-%18)C%176C(C(=O)NC(CO)CO)(C(=O)NC(CO)CO)C6%12c6c-7c(c-2c2c6-c6c%12c-%16c%14c-%13c6C%106C(C(=O)NC(CO)CO)(C(=O)NC(CO)CO)C926)C513)C84C%11(C(=O)NC(CO)CO)C(=O)NC(CO)CO` (centres unmarked) [C60-ser, C60-serinol], the “γH2AX foci vs control” value (NIH3T3 cells; NIH3T3, 100 μM 2 hours before 0.5 Gy proton radiation) was “trend towards reduction in total foci formed, but it was not statistically significant”, the “γH2AX foci vs control” value (NIH3T3 cells; NIH3T3, 100 μM 2 hours before 1 Gy proton radiation) was “significant decrease in the number of foci” and the “γH2AX foci vs control” value (NIH3T3 cells; NIH3T3, 100 μM 2 hours, absence of radiation) was “no significant different in foci expression”. The “radiation-induced increase in respiratory capacity” value (N2A cells) was “dampened and, in some cases, reduced to normal or slightly below normal levels”, the “Stability of C60-ser (hexakis-adduct peak)” value (shortened to “Stability of C60-ser”) ([1]; Solid form at 4° C. under nitrogen, 1 day) was 100 ± 2% and the “Stability of C60-ser” value ([1]; Solid form at 4° C. under nitrogen, 7 days) was 100 ± 1%. The “Stability of C60-ser” value ([1]; Solid form at 4° C. under nitrogen, 28 days) was 100 ± 1%, the “Stability of C60-ser” value ([1]; Solid form at 4° C. under nitrogen, 120 days) was 100 ± 2% and the “Stability of C60-ser” value ([1]; Solution in DI water at 4° C., 1 day) was 100 ± 2%. The “Stability of C60-ser” value ([1]; Solution in DI water at 4° C., 7 days) was 100 ± 2%, the “Stability of C60-ser” value ([1]; Solution in DI water at 4° C., 28 days) was 100 ± 3% and the “Stability of C60-ser” value ([1]; Solution in DI water at 4° C., 120 days) was 98 ± 3%. The “Stability of C60-ser” value ([1]; Solution in DI water at room temperature, 1 day) was 100 ± 2%, the “Stability of C60-ser” value ([1]; Solution in DI water at room temperature, 7 days) was 100 ± 2% and the “Stability of C60-ser” value ([1]; Solution in DI water at room temperature, 28 days) was 96 ± 3%. For the same molecule, the “Stability of C60-ser” value ([1]; Solution in DI water at room temperature, 120 days) was 95 ± 4%, the “degradation of the hexakis-adduct peak” value ([1]; solid at 4° C. under nitrogen) was “no degradation of the hexakis-adduct peak was observed” and the “surviving fraction of cells vs control” value [2] was “no difference in the surviving fraction of cells”. It also gave a Predominant aggregate sizes ([3]; 0.1 mg/mL, 37 ° C.) of 260 ± 38 nm, a Predominant aggregate sizes ([3]; 10 mg/mL, 4 ° C.) of 290 ± 73 nm and a Predominant aggregate sizes ([3]; 10 mg/mL, 37 ° C.) of 233 ± 56 nm. The size of aggregates ([3]; dynamic equilibrium in water) was 100-2000 nm, the “size of conjugate monomers” value ([3]; dynamic equilibrium in water) was about 3 nm and the “diameters of individual molecules” value ([3]; initially, when dissolved in water) was 3-4 nm. The “fraction of surviving cells” value (HepG2 cells; HepG2, 100 μM 2 hours before irradiation) was “increased the fraction of surviving cells” and the “dose enhancement factor (DEF) at 20% surviving fraction” value (HepG2 cells; HepG2, 100 μM 2 hours, 0-6 Gy 230 MeV proton) was 0.88±0.01.
